Test results reported in US8648116B2, “Derivatives of N-(arylamino) sulfonamides including polymorphs as inhibitors of MEK as well as compositions, methods of use and methods for preparing the same” (Ardea Biosciences, Inc., priority 2005, dated 2014).
Read-outs that look alike come from different tables or passages of the source.

How the values were obtained:
[1] = system: human renal proximal tubule epithelial cells (RPTEC); experiment: Renal cell toxicity (AK release, ATP, 48 hr); format: cell-based
Procedure: Cryopreserved human renal proximal tubule epithelial cells (RPTEC) were obtained from Cambrex and were processed according to manufacturer's instructions. Cells were expanded for 4 days and then plated in 96-well plates at 50,000 cells/well for drug exposure.
(§1) After 48 hr, supernatant AK levels were determined using Toxilight, and cellular ATP levels were determined using CellTiterGlo. Full kill values were determined using 15 μM VRX-14686.

A431 epidermoid cells = experiment: Anchorage-dependent growth inhibition (CellTiterGlo/ATP, 48 hr); conditions: read-out: Mean GI50; A431, 48 hr, ATP content, mean of at least three experiments
Procedure: (§2) Cells were maintained at 37° C., 5% CO2, and 100% humidity. Colo205 cells were maintained in RPMI supplemented with 10% fetal bovine serum, glutamine (2 mM), penicillin (100 U/ml), and streptomycin (100 μg/ml). For growth inhibition experiments, cells were plated in white 384-well microplates at 1000 cells/20 dwell. After 24 hr, 5 μl of a 5× drug stock solution was added. All drugs were initially prepared as 200× stocks in DMSO, such that final DMSO concentration was 0.5%. Cells were incubated for 48 hr at 37° C. and ATP levels were determined using CellTiterGlo (Promega, Madison, Wis.). […] Non-linear curve-fitting was performed using GraphPad Prism 4 (GraphPad Software, San Diego, Calif.).

[2] = Plasma concentrations in mice (Example 94F); format: in vivo, nu/nu mice; conditions: mouse efficacy model, typical range
[3] = system: human A375 melanoma xenografts
[4] = system: Colo205 colon cancer cells; experiment: Anchorage-dependent growth inhibition (CellTiterGlo/ATP, 48 hr); conditions: ATP content
Procedure: as §2

rat hepatocytes = experiment: Primary hepatocyte toxicity (AK release, ATP, 48 hr); format: cell-based; conditions: rat hepatocytes
Procedure: Cryopreserved rat hepatocytes were obtained from CellzDirect (Austin, Tex.) and plated on collagen coated 96-well plates according to manufacturer's instructions. Drug was added 4 hr after plating (final DMSO concentration 0.5%).
as §1

A375 cells = experiment: Anchorage-independent growth inhibition (MTS, 7 days); format: cell-based, human
A375 melanoma cells = experiment: Anchorage-dependent growth inhibition (CellTiterGlo/ATP, 48 hr); format: cell-based, human; conditions: for GI50: ATP content
[5] = system: orthotopic HT-29 human colorectal adenocarcinoma; experiment: Growth response of orthotopic HT-29 colon tumors in nude mice; format: in vivo, BALB/c nu/nu mice
Procedure: Female BALB/c nu/nu mice (University of Adelaide, Waite Campus, SA, Australia), aged 7-12 weeks, with a body weight range: of 16.58-25.39 g (mean 21.52 g) were used for the study. The mice were divided into 6 Study groups (4 treatment groups and 2 control groups) as follows: • Number of Mice per Group: 10 in Groups 1 to 5 inclusive • 9 in ‘Take-Rate’ Control Group (Group 6)
HT-29 human colorectal adenocarcinoma cells (Passage 4 from working stock VP-Stock 325) were cultured in RPMI1640 cell culture medium, which was supplemented with 10% FBS and penicillin-streptomycin (501 U/mL final concentration). The cells were harvested by trypsinisation, washed twice in HBSS and counted. The cells were then resuspended in HESS and adjusted to a final volume containing 2×10^8 cells/mL. Prior to inoculation, the incision site was liberally swabbed with alcohol and an incision made through the abdominal wall to expose the caecum wall. The needle was introduced through the surface of the caecum wall where 5 μL of cells (1×10^6 cells) were discharged.
A stock solution was prepared weekly and stored at 4° C. Dosing solutions were prepared on each day of administration.
Caecum and tumor wet weight were measured when each were excised post-mortem on the termination day of the study. At the termination of the study, the caecum was excised from all mice in each study group and weighed with the tumors intact. The tumors were then excised from the caecum and weighed.
A two-sample t-test was used to determine the significance in body weight change within a treatment group between Day 0 and the termination day of the study. […] In these groups, a two-sample t-test was used to determine the significance in body weight change within a treatment group between Day 0 and the final treatment day of the study, and between the last treatment day and the termination day of the study.
A One-Way Analysis of Variance (ANOVA) (All Pairwise Multiple Comparison Procedure and Multiple Comparison versus Control Group) was performed on the caecum weight and tumor weight data at the end of the study.

Colo205 cells = experiment: Anchorage-independent growth inhibition (MTS, 7 days); format: cell-based, human
Procedure: Wells of an “ultra low binding” plate (Corning, Acton Mass.) were filled with 60 μl of a 0.15% agarose solution in complete RPMI. Then, 60 μl complete RPMI containing 9000 Colo205 cells in 0.15% agarose was added per well. After 24 hr, 60 μl of a 3× drug solution in agarose free complete RPMI was added. After 7 days, 36 μl 6×MTS reagent (CellTiter 96 Aqueous, Promega, Madison, Wis.) was added per well. After 2 hr at 37° C., absorbance at 490 nm was determined on the M5 plate reader (Molecular Devices, Sunnyvale, Calif.).
Viability was determined by MTS assay.

HT29 colon cells = experiment: Anchorage-dependent growth inhibition (CellTiterGlo/ATP, 48 hr); conditions: read-out: Mean GI50; HT29, 48 hr, ATP content, mean of at least three experiments
Procedure: as §2

With `COc1cc(F)c(F)c(Nc2ccc(I)cc2F)c1NS(=O)(=O)C1(C[C@H](O)CO)CC1` the “ATP depletion and cell lysis” value ([1]; RPTEC cells, 48 hr, cell lysis at 30 W (so in the source)) was “dose dependent ATP depletion and evident cell lysis”, the cytotoxicity ([1]; human renal proximal tubule epithelial cells) was “little cytotoxicity” and the GI50 (A431 epidermoid cells) was 86 nM. For the same compound, the half-life [2] was 2 to 3 h, the “Median TTE” value ([3]; Group 3, 50 mg/kg po qd×14) was 27.5 days and the PR ([3]; Group 3, 50 mg/kg po qd×14) was “A single animal”. For the same compound, the TGD ([3]; Group 3, 50 mg/kg po qd×14) was 21%, the CR ([3]; Group 4, 25 mg/kg po bid×14) was 5/9 and the “Median TTE” value ([3]; Group 4, 25 mg/kg po bid×14) was 59.9 days. The PR ([3]; Group 4, 25 mg/kg po bid×14) was 4/9, the TFS ([3]; Group 4, 25 mg/kg po bid×14) was 4/9 and the TGD ([3]; Group 4, 25 mg/kg po bid×14, maximum possible) was 163%. The “Median TTE” value ([3]; Group 5, 25 mg/kg po qd×14) was 25.6 days, the tumor regressions ([3]; Group 5, 25 mg/kg po qd×14) was “no tumor regressions” and the TGD ([3]; Group 5, 25 mg/kg po qd×14, non-significant) was 12%. The “Median TTE” value ([3]; Group 6, 12.5 mg/kg po bid×14) was 27.5 days, the PR ([3]; Group 6, 12.5 mg/kg po bid×14) was “a single PR response” and the TGD ([3]; Group 6, 12.5 mg/kg po bid×14) was 21%. For the same compound, the GI50 ([4]; Colo205, separate study, 48 hr) was 27 nM, the GI50 ([4]; read-out: Mean GI50, Colo205, 48 hr, mean of at least three experiments) was 89 nM and the cytotoxicity (rat hepatocytes) was “little cytotoxicity”. The GI50 (A375 cells; A375, anchorage independent, read-out: Mean GI50) was 84 nM, the GI50 (A375 cells; A375 cells, read-out: GI50, anchorage independent growth (FIG. 12B)) was 22 nM and the GI50 (A375 melanoma cells; A375, 48 hr, mean of at least three experiments, read-out: Mean GI50) was 71 nM. For the same compound, the GI50 (A375 melanoma cells; A375, separate study, 48 hr, read-out: GI50) was 56 nM, the “ATP, Cell viability, % Control” value (A375 melanoma cells; A375 cells, 1 uM, 48 hr) was 27% and the “HT-29 tumor and caecum weight, trend” value ([5]; 10 mg/kg p.o.) was “reduction”. For the same compound, the “average caecum and tumor weights vs Vehicle Control” value ([5]; 2, 10 and 50 mg/kg p.o.) was “no significant difference”, the GI50 (Colo205 cells; Colo205, anchorage independent, read-out: Mean GI50) was 40 nM and the GI50 (Colo205 cells; human colorectal carcinoma Colo205 cells, read-out: GI50, anchorage independent growth (FIG. 12A)) was 11 nM. For the same compound, the GI50 (HT29 colon cells) was 70 nM.
